By melting point is commonly meant the temperature of the solid-liquid transition.

Data set [1] has as its system Glomerella lagenarium (Colletotrichum lagenarium). Briefly: Fungicidal activity against Glomerella lagenarium (Colletotrichum lagenarium) liquid culture / cucumber / preventative (anthracnose). The format is cell-based. The following applies: Colletotrichum orbiculare, 72 h; 20 ppm in the applied formulation; liquid culture (PDB), growth inhibition measured photometrically 3 to 4 days after application; vs untreated control; read-out: disease control. Put shortly:
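Photometric read-out of fungal growth 3 to 4 days after application, expressed as percent control relative to untreated wells. Plates held at 24 °C. Compound placed in DMSO before adding PDB broth seeded with conidia from cryogenic storage.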

Data set [2] concerns Puccinia recondita f. sp. Tritici. Briefly: Fungicidal activity against Puccinia recondita f. sp. Tritici / wheat / leaf disc curative (brown rust). The class given is in vivo. Conditions: foliar, 24 h, 200 ppm in the applied formulation, wheat leaf segments cv. Kanzler, applied 1 day after inoculation, vs untreated control, read-out: disease control. The method, boiled down: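 Compound applied 1 day after spore inoculation of wheat cv. Kanzler leaf segments on agar (dark, 19 °C, 75% RH before treatment). After further incubation under 12 h light/12 h dark at 19 °C and 75% RH, disease control relative to untreated segments rated 6–8 days post-application.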

Data set [3] deals with Phakopsora pachyrhizi. Briefly: Fungicidal activity against Phakopsora pachyrhizi / soybean / leaf disc preventative (Asian soybean rust). The format is in vivo. The following applies: foliar, 200 ppm in the applied formulation, soybean leaf disks, vs untreated control, read-out: disease control. Put shortly:
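Preventative test: compound sprayed onto soybean leaf discs one day before spore inoculation of the lower leaf face. Incubation at 20 °C and 75% rh, first 24-36 h in darkness, then a 12 h light cycle. Disease control versus untreated discs read 12-14 days after application.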

Data set [4] concerns Puccinia recondita f. sp. Tritici. Briefly: Fungicidal activity against Puccinia recondita f. sp. Tritici / wheat / leaf disc preventative (brown rust). The format is in vivo. Conditions: foliar, 200 ppm in the applied formulation, wheat leaf segments cv. Kanzler, inoculated 1 day after application, vs untreated control, read-out: disease control. The method, boiled down:
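Wheat cv. Kanzler leaf segments on agar sprayed with diluted compound, inoculated with brown rust spores 1 day later. Kept at 19° C., 75% rh, 12 h light/dark; percent disease control versus untreated segments scored 7 to 9 days after application, compounds tested at 200 ppm.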

Turning to `C#CCO/N=C\NC(=O)c1ccc(-c2noc(C(F)(F)F)n2)cc1` [Compound 1.6, N-[(Z)-prop-2-ynoxyimino-methyl]-4-[5-(trifluoromethyl)-1,2,4-oxadiazol-3-yl]benzamide], the melting point lay within 114 to 119 °C. Moreover, the inhibition of growth at 20 ppm in data set [1] was at least 80%. Also, in data set [2], the pest or weed control at 200 ppm was at least 80%. Moreover, the pest or weed control at 200 ppm in data set [3] was at least 80%. The pest or weed control at 200 ppm in data set [4] is at least 80%.

`CON=CC(C)NC(=O)c1ccc(-c2noc(C(F)(F)F)n2)cc1` (centres unmarked) [Compound 1.3, N-(2-methoxyimino-1-methyl-ethyl)-4-[5-(trifluoromethyl)-1,2,4-oxadiazol-3-yl]benzamide]: the melting point lay within 164 to 165 °C. The inhibition of growth at 20 ppm in data set [1] is at least 80%. Besides, the pest or weed control at 200 ppm in data set [2] is at least 80%. The pest or weed control at 200 ppm in data set [3] was at least 80%. The pest or weed control at 200 ppm in data set [4] was at least 80%.

`CC(/C=N\OCCF)NC(=O)c1ccc(-c2noc(C(F)(F)F)n2)cc1` (centres unmarked) [Compound 1.150, N-[(2Z)-2-(2-fluoroethoxyimino)-1-methyl-ethyl]-4-[5-(trifluoromethyl)-1,2,4-oxadiazol-3-yl]benzamide] showed a melting point of 172 to 173 °C. Moreover, in data set [1], the inhibition of growth at 20 ppm is at least 80%. In addition, in data set [2], the pest or weed control at 200 ppm is at least 80%. In addition, the pest or weed control at 200 ppm in data set [3] is at least 80%. The pest or weed control at 200 ppm in data set [4] was at least 80%.

Regarding `CCON=CCNC(=O)c1ccc(-c2noc(C(F)(F)F)n2)cc1` [Compound 1.11, N-(2-ethoxyiminoethyl)-4-[5-(trifluoromethyl)-1,2,4-oxadiazol-3-yl]benzamide], the melting point lay within 156 to 158 °C. Besides, in data set [1], the inhibition of growth at 20 ppm is at least 80%. Moreover, the pest or weed control at 200 ppm in data set [2] was at least 80%. Also, in data set [3], the pest or weed control at 200 ppm is at least 80%. Also, in data set [4], the pest or weed control at 200 ppm is at least 80%.

`CON=CCCNC(=O)c1ccc(-c2noc(C(F)(F)F)n2)c(F)c1` [Compound 1.160, 3-fluoro-N-(3-methoxyiminopropyl)-4-[5-(trifluoromethyl)-1,2,4-oxadiazol-3-yl]benzamide] returned a melting point of 103 to 108 °C. Besides, the inhibition of growth at 20 ppm in data set [1] is at least 80%. Moreover, the pest or weed control at 200 ppm in data set [2] was at least 80%. The pest or weed control at 200 ppm in data set [3] is at least 80%. Further, in data set [4], the pest or weed control at 200 ppm was at least 80%.

In the case of `C#CCO/N=C/CCNC(=O)c1ccc(-c2noc(C(F)(F)F)n2)cc1` [Compound 1.167, N-[(3E)-3-prop-2-ynoxyiminopropyl]-4-[5-(trifluoromethyl)-1,2,4-oxadiazol-3-yl]benzamide], the melting point was 89 to 91 °C. For the same compound, in data set [1], the inhibition of growth at 20 ppm was at least 80%. Moreover, in data set [2], the pest or weed control at 200 ppm is at least 80%. Moreover, the pest or weed control at 200 ppm in data set [3] was at least 80%. Further, in data set [4], the pest or weed control at 200 ppm is at least 80%.

For the compound `CON=CC(C)NC(=O)c1ccc(-c2noc(C(F)(F)F)n2)cc1F` (centres unmarked) [Compound 1.155, 2-fluoro-N-(2-methoxyimino-1-methyl-ethyl)-4-[5-(trifluoromethyl)-1,2,4-oxadiazol-3-yl]benzamide], the melting point was 132 to 134 °C. Besides, the inhibition of growth at 20 ppm in data set [1] is at least 80%. In data set [3], the pest or weed control at 200 ppm was at least 80%. For the same compound, in data set [4], the pest or weed control at 200 ppm is at least 80%.

For `CON=C(C)CNC(=O)c1ccc(-c2noc(C(F)(F)F)n2)c(F)c1` [Compound 1.164, 3-fluoro-N-(2-methoxyimino-propyl)-4-[5-(trifluoromethyl)-1,2,4-oxadiazol-3-yl]benzamide], the melting point is 131 to 134 °C. In data set [1], the inhibition of growth at 20 ppm is at least 80%. For the same compound, the pest or weed control at 200 ppm in data set [2] was at least 80%. In data set [3], the pest or weed control at 200 ppm is at least 80%. Further, the pest or weed control at 200 ppm in data set [4] was at least 80%.

Compound `CC(/C=N/OCCF)NC(=O)c1ccc(-c2noc(C(F)(F)F)n2)cc1` (centres unmarked) [Compound 1.149, N-[(2E)-2-(2-fluoroethoxy-imino)-1-methyl-ethyl]-4-[5-(trifluoromethyl)-1,2,4-oxadiazol-3-yl]benzamide] returned a melting point of 138 to 139 °C. The inhibition of growth at 20 ppm in data set [1] is at least 80%. Besides, the pest or weed control at 200 ppm in data set [2] was at least 80%. Besides, in data set [3], the pest or weed control at 200 ppm was at least 80%. The pest or weed control at 200 ppm in data set [4] was at least 80%.

`CCON=CC(C)NC(=O)c1ccc(-c2noc(C(F)(F)F)n2)cc1F` (centres unmarked) [Compound 1.156, N-(2-ethoxyimino-1-methyl-ethyl)-2-fluoro-4-[5-(trifluoromethyl)-1,2,4-oxadiazol-3-yl]benzamide] displayed a melting point of 113 to 115 °C. In addition, in data set [1], the inhibition of growth at 20 ppm is at least 80%. Moreover, the pest or weed control at 200 ppm in data set [2] was at least 80%. For the same compound, the pest or weed control at 200 ppm in data set [3] was at least 80%.

For `CCO/N=C\C(C)NC(=O)c1ccc(-c2noc(C(F)(F)F)n2)cc1` (centres unmarked) [Compound 1.9, N-[(2Z)-2-ethoxyimino-1-methyl-ethyl]-4-[5-(trifluoromethyl)-1,2,4-oxadiazol-3-yl]benzamide], the melting point was in the range of 173 to 174 °C. Moreover, in data set [1], the inhibition of growth at 20 ppm is at least 80%. Further, the pest or weed control at 200 ppm in data set [2] was at least 80%. In data set [3], the pest or weed control at 200 ppm was at least 80%. Further, the pest or weed control at 200 ppm in data set [4] is at least 80%.

The compound `CC(CNC(=O)c1ccc(-c2noc(C(F)(F)F)n2)cc1)=NOCCF` [Compound 1.151, N-[2-(2-fluoroethoxyimino)propyl]-4-[5-(trifluoromethyl)-1,2,4-oxadiazol-3-yl]benzamide] registered a melting point of 133 to 134 °C. In addition, the inhibition of growth at 20 ppm in data set [1] was at least 80%. Also, the pest or weed control at 200 ppm in data set [2] was at least 80%. Also, the pest or weed control at 200 ppm in data set [3] is at least 80%. For the same compound, the pest or weed control at 200 ppm in data set [4] was at least 80%.

As for `CON=CCNC(=O)c1ccc(-c2noc(C(F)(F)F)n2)c(F)c1` [Compound 1.166, 3-fluoro-N-(2-methoxyimino-ethyl)-4-[5-(trifluoromethyl)-1,2,4-oxadiazol-3-yl]benzamide], the melting point is 120 to 122 °C. In data set [1], the inhibition of growth at 20 ppm was at least 80%. Besides, in data set [2], the pest or weed control at 200 ppm was at least 80%. Moreover, in data set [3], the pest or weed control at 200 ppm was at least 80%. Moreover, in data set [4], the pest or weed control at 200 ppm was at least 80%.

Regarding `CCON=CCCNC(=O)c1ccc(-c2noc(C(F)(F)F)n2)cc1F` [Compound 1.162, N-(3-ethoxyiminopropyl)-2-fluoro-4-[5-(trifluoromethyl)-1,2,4-oxadiazol-3-yl]benzamide], the melting point lay within 97 to 99 °C. In data set [1], the inhibition of growth at 20 ppm is at least 80%. Besides, the pest or weed control at 200 ppm in data set [2] was at least 80%. The pest or weed control at 200 ppm in data set [3] was at least 80%. Besides, the pest or weed control at 200 ppm in data set [4] was at least 80%.

The compound `CO/N=C/CN(C(=O)c1ccc(-c2noc(C(F)(F)F)n2)cc1)C1CC1` [Compound 1.170, N-cyclopropyl-N-[(2E)-2-methoxyiminoethyl]-4-[5-(trifluoromethyl)-1,2,4-oxadiazol-3-yl]benzamide] had a melting point of 60 to 62 °C.

In the case of `CON=CCNC(=O)c1ccc(-c2noc(C(F)(F)F)n2)cc1F` [Compound 1.169, 2-fluoro-N-(2-methoxyimino-ethyl)-4-[5-(trifluoromethyl)-1,2,4-oxadiazol-3-yl]benzamide], the melting point lay within 116 to 118 °C.

Compound `CC(C)ON=CCCNC(=O)c1ccc(-c2noc(C(F)(F)F)n2)cc1` [Compound 1.168, N-(3-isopropoxyimino-propyl)-4-[5-(trifluoromethyl)-1,2,4-oxadiazol-3-yl]benzamide] registered a melting point of 122 to 124 °C. Also, in data set [1], the inhibition of growth at 20 ppm was at least 80%. In data set [2], the pest or weed control at 200 ppm is at least 80%. For the same compound, the pest or weed control at 200 ppm in data set [3] was at least 80%. Further, the pest or weed control at 200 ppm in data set [4] is at least 80%.

`CCO/N=C/C(C)NC(=O)c1ccc(-c2noc(C(F)(F)F)n2)cc1` (centres unmarked) [Compound 1.8, N-[(2E)-2-ethoxyimino-1-methyl-ethyl]-4-[5-(trifluoromethyl)-1,2,4-oxadiazol-3-yl]benzamide] returned a melting point of 142 to 143 °C. For the same compound, the inhibition of growth at 20 ppm in data set [1] was at least 80%. The pest or weed control at 200 ppm in data set [2] was at least 80%. The pest or weed control at 200 ppm in data set [3] was at least 80%. Further, the pest or weed control at 200 ppm in data set [4] is at least 80%.

For `CO/N=C(\C)C(NC(=O)c1ccc(-c2noc(C(F)(F)F)n2)cc1)OC` (centres unmarked) [Compound 1.7, N-[(2E)-1-methoxy-2-methoxyimino-propyl]-4-[5-(trifluoromethyl)-1,2,4-oxadiazol-3-yl]benzamide], the melting point is 100.7 to 106.9 °C. The inhibition of growth at 20 ppm in data set [1] is at least 80%. Besides, the pest or weed control at 200 ppm in data set [2] was at least 80%. Further, the pest or weed control at 200 ppm in data set [3] is at least 80%. For the same compound, the pest or weed control at 200 ppm in data set [4] is at least 80%.

On to `CC(CNC(=O)c1ccc(-c2noc(C(F)(F)F)n2)cc1)=NOC1CCCCO1` (centres unmarked) [Compound 1.114, N-(2-tetrahydropyran-2-yloxyiminopropyl)-4-[5-(trifluoromethyl)-1,2,4-oxadiazol-3-yl]benzamide], for which, in data set [1], the inhibition of growth at 20 ppm was at least 80%. The pest or weed control at 200 ppm in data set [2], in data set [3] and in data set [4] was at least 80% throughout.
